# Biological target: T1, New Delhi metallo-β-lactamase (NDM-1) (Escherichia coli, UniProt E5KIY2)
# T1 construct: gene blaNDM-1; recombinant NDM-1 purified from E. coli BL21(DE3)-pET-32a(+)-blaNDM-1
# Assay: nitrocefin hydrolysis assay with purified NDM-1, OD492
# Format: biochemical
# T1 sequence (E5KIY2 29-270 limits assumed): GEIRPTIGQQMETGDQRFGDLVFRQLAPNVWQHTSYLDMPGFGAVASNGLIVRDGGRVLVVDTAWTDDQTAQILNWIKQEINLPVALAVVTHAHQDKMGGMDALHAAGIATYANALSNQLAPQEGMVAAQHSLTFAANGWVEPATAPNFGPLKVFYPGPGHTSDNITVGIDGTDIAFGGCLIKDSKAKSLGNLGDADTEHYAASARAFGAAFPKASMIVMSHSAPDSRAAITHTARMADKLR
smiles,measurement,value
"CC(C)NCC(O)COc1ccc(CCOCC2CC2)cc1 (stereo not shown) [BET, betaxolol]",IC50,19.3 ± 0.9 µM

# — paper PMC10487625, “Betaxolol as a Potent Inhibitor of NDM-1-Positive E. coli That Synergistically Enhances the Anti-Inflammatory Effect in Combination with Meropenem” (International Journal of Molecular Sciences, 2023)
